Earlier results on 3 molecules are cited in publication PMC5087393, “A Toolbox of Genetically Encoded FRET-Based Biosensors for Rapid L-Lysine Analysis” (Sensors (Basel, Switzerland), 2016).

The target of data set [1] is LAO-binding protein from S. typhimurium. Further details: method as in PMID 1400387. The following applies: 10 mM NaPi buffer, pH 7.0; read-out: Kd (equilibrium dialysis).
In data set [2] the test system is LAO-binding protein of E. coli. The following applies: read-out: Kd (equilibrium dialysis); without permutation and fluorescent proteins; 10 mM KPi buffer, pH 7.0, 50 mM NaCl.

Molecules are shown by their SMILES.

As to `N[C@@H](Cc1c[nH]cn1)C(=O)O` [L-histidine], in data set [1], the Kd is 500 nM.
With `N=C(N)NCCC[C@H](N)C(=O)O` [L-arginine], the dissociation constant Kd in data set [1] is 14 nM; in data set [2], 1500 nM.
For the molecule `NCCCC[C@H](N)C(=O)O` [L-lysine], the Kd is 15 nM in data set [1] and 3000 nM in data set [2].
